Like-named read-outs stand apart in the source and are kept apart here.
Legend:
Candida albicans KMM 455 [1] = assay: Antimicrobial assay, growth inhibition (optical density); format: cell-based; details: C. albicans, 18 h
Description: (§1) The Gram-positive bacterial Staphylococcus aureus ATCC 21027, Gram-negative bacterial Escherichia coli VKPM (B-7935), and yeast-like fungal Candida albicans KMM 455 strains were fermented on solid medium Mueller Hinton broth with agar (16.0 g/L) in a Petri dish at 37 °C for 24 h. The antimicrobial activity of the compound was tested at concentrations ranging from 100 µM and lower. The effect of the compound on bacterial growth was estimated as described by. Gentamicin and amphotericin B were used as positive controls against S. aureus, E. coli, and C. albicans, and a 1% dimethyl sulfoxide (DMSO) solution in PBS was used as a negative control. The optical density of the bacterial suspension after 18 h was measured at λ = 620 nm. The effect of the compound on biofilm formation for 18 h was tested using MTT reagent (Sigma-Aldrich, St. Louis, MO, USA) in accordance with. The optical density of the obtained solution was measured at λ = 570 nm. A Multiskan FS spectrophotometer (Thermo Scientific Inc., Beverly, MA, USA) was used for both assays. The results were calculated as percentages of the control data and presented as minimal concentrations reduced by 50% of growth or biofilm formation (MIC50).

[2] = tested on: Escherichia coli VKPM (B-7935); assay: as above; format: cell-based
Description: as §1

[3] = tested on: Staphylococcus aureus ATCC 21027; assay: as above; format: cell-based
Description: as §1

Candida albicans KMM 455 [4] = assay: Biofilm formation assay (MTT); format: cell-based
Description: as §1

[5] = tested on: Escherichia coli VKPM (B-7935); assay: Biofilm formation assay (MTT); format: cell-based
Description: as §1

[6] = tested on: Staphylococcus aureus ATCC 21027; assay: Biofilm formation assay (MTT); format: cell-based
Description: as §1

H9c2 cardiomyocytes = assay: Cell viability assay (MTT); format: cell-based, rat; details: for IC50: read-out: Cytotoxicity IC50
Source text: (§2) Rat cardiomyocyte H9c2 cells were kindly provided by Prof. Dr. Gunhild von Amsberg from the Martini-Klinik Prostate Cancer Center, University Hospital Hamburg-Eppendorf, Hamburg, Germany. The human HaCaT keratinocyte cell line was kindly provided by Prof. N. Fusenig (Cancer Research Centre, Heidelberg, Germany). Non-cancerous human breast epithelial MCF-10A cells were kindly provided by Dr. Irina Zhitnyak (N. N. Blokhin National Medical Research Center of Oncology, Moscow, Russia). Human breast cancer MCF-7 HTB-22 and MDA-MB-231 cells were obtained from the ATTC (Manassas, VA, USA).
(§3) H9c2 and HaCaT cells were cultured in DMEM with 10% fetal bovine serum and 1% penicillin/streptomycin (BioloT, St. Petersburg, Russia). MCF-7 and MDA-MB-231 cells were cultured in MEM (BioloT, St. Petersburg, Russia) with 10% fetal bovine serum (FBS) and 1% penicillin/streptomycin (BioloT, St. Petersburg, Russia). MCF 10A cells were cultured in DMEM F12 medium (BioloT, St. Petersburg, Russia) supplemented with 20% FBS, 20 ng/mL hrEGF (Sci-Store, Moscow, Russia), and 1% penicillin/streptomycin (BioloT, St. Petersburg, Russia). All cells were cultured at 37 °C in a humidified atmosphere containing 5% CO2.
(§4) H9c2 cells were seeded at a concentration of 3 × 10^3 cells/well. MCF-10A, MCF-7, and MDA-MB-231 cells were seeded at 5 × 10^3 cells/well, and HaCaT cells were seeded at 1 × 10^4 cells/well. The experiments were initiated after 24 h.
(§5) Compounds at concentrations up to 100 µM were added to the wells for 24h or 48 h, and the viability of the cells was measured using an MTT (3-(4,5-dimethylthiazol-2-yl)-2,5-diphenyltetrazolium bromide) assay, which was performed according to the manufacturer’s instructions (Sigma-Aldrich, Munich, Germany). […] DMSO was used as a control. The results are presented as percentages of the control data.

HaCaT keratinocytes = assay: Cell viability assay (MTT); format: cell-based, human; details: for IC50: read-out: Cytotoxicity IC50
Source text: as §2, §3, §4, §5

[7] = tested on: MCF-10A breast epithelial cells; assay: Cell viability assay (MTT); format: cell-based, human; details: MCF10A
Source text: as §2, §3, §4, §5

[8] = tested on: MCF-7 breast cancer cells; assay: Cell viability assay (MTT); format: cell-based, human
Source text: as §2, §3, §4, §5

[9] = tested on: MDA-MB-231 breast cancer cells; assay: Cell viability assay (MTT); format: cell-based, human; details: for IC50: read-out: Cytotoxicity IC50
Source text: as §2, §3, §4, §5

[10] = tested on: non-small cell lung cancer NCIH460 cells; details: cited from earlier work
[11] = tested on: breast cancer MCF-7 cells; details: cited from earlier work
CNS glioma SF-268 cells = details: cited from earlier work

asterredione [Compound 9]
MIC50 (Candida albicans KMM 455 [1]): >100 µM | MIC50 ([2]; E. coli, 18 h): >100 µM | effect on E. coli growth ([2]; at / up to 100 µM): did not affect | MIC50 ([3]; S. aureus, 18 h): >100 µM | effect on S. aureus growth ([3]; at / up to 100 µM): did not affect | Biofilm formation, MIC50 (Candida albicans KMM 455 [4]; C. albicans, 18 h): >100 µM | prevention of C. albicans biofilm formation (Candida albicans KMM 455 [4]; at 100 µM): 41.18 ± 4.91% | Biofilm formation, MIC50 ([5]; E. coli, 18 h): >100 µM | effect on E. coli biofilm formation ([5]; at / up to 100 µM): did not affect | Biofilm formation, MIC50 ([6]; S. aureus, 18 h): >100 µM | effect on S. aureus biofilm formation ([6]; at / up to 100 µM): did not affect | decrease of viability (H9c2 cardiomyocytes; H9c2, 100 µM for 48 h): 38% | cell viability (H9c2 cardiomyocytes; H9c2, 24 h, 1.0 µM): 101.1 ± 6.6 % of control | cell viability (H9c2 cardiomyocytes; H9c2, 24 h, 10.0 µM): 101.7 ± 3.2 % of control | cell viability (H9c2 cardiomyocytes; H9c2, 24 h, 100.0 µM): 73.1 ± 5.1 % of control | IC50 (H9c2 cardiomyocytes; H9c2, 24 h): > 100 µM | cell viability (H9c2 cardiomyocytes; H9c2, 48 h, 1.0 µM): 90.2 ± 7.1 % of control | cell viability (H9c2 cardiomyocytes; H9c2, 48 h, 10.0 µM): 93.0 ± 10.4 % of control | cell viability (H9c2 cardiomyocytes; H9c2, 48 h, 100.0 µM): 62.2 ± 10.4 % of control | IC50 (H9c2 cardiomyocytes; H9c2, 48 h): > 100 µM | toxicity (H9c2 cardiomyocytes; H9c2, at 10 µM): not toxic | decrease of viability (HaCaT keratinocytes; 100 µM for 48 h): 23% | cell viability (HaCaT keratinocytes; 24 h, 1.0 µM): 88.7 ± 3.0 % of control | cell viability (HaCaT keratinocytes; 24 h, 10.0 µM): 79.2 ± 2.1 % of control | cell viability (HaCaT keratinocytes; 24 h, 100.0 µM): 62.0 ± 6.9 % of control | IC50 (HaCaT keratinocytes; 24 h): > 100 µM | cell viability (HaCaT keratinocytes; 48 h, 1.0 µM): 99.5 ± 2.3 % of control | cell viability (HaCaT keratinocytes; 48 h, 10.0 µM): 92.6 ± 11.2 % of control | cell viability (HaCaT keratinocytes; 48 h, 100.0 µM): 77.1 ± 1.5 % of control | IC50 (HaCaT keratinocytes; 48 h): > 100 µM | toxicity (HaCaT keratinocytes; at 10 µM): not toxic | cell viability ([7]; 24 h, 1.0 µM): 100.7 ± 0.9 % of control | cell viability ([7]; 24 h, 10.0 µM): 97.5 ± 3.5 % of control | cell viability ([7]; 24 h, 100.0 µM): 66.3 ± 3.6 % of control | IC50 ([7]; 24 h, read-out: Cytotoxicity IC50): > 100 µM | cell viability ([7]; 48 h, 1.0 µM): 96.7 ± 5.1 % of control | cell viability ([7]; 48 h, 10.0 µM): 79.4 ± 4.3 % of control | cell viability ([7]; 48 h, 100.0 µM): 61.5 ± 1.9 % of control | IC50 ([7]; 48 h, read-out: Cytotoxicity IC50): > 100 µM | IC50 ([7]; time not stated, read-out: half-maximal concentration (IC50), viability): > 100 µM | IC50 ([8]; MCF-7, 24 h, read-out: Cytotoxicity IC50): 51.3 ± 2.6 µM | cell viability ([8]; MCF-7, 48 h, 1.0 µM): 97.8 ± 1.1 % of control | cell viability ([8]; MCF-7, 48 h, 10.0 µM): 78.6 ± 7.6 % of control | cell viability ([8]; MCF-7, 48 h, 100.0 µM): 21.2 ± 6.6 % of control | IC50 ([8]; MCF-7, 48 h, read-out: Cytotoxicity IC50): 55.1 ± 3.9 µM | IC50 ([8]; MCF-7, time not stated, read-out: IC50, viability): ~50 µM | cell viability ([9]; MDA-MB-231, 24 h, 1.0 µM): 96.3 ± 3.2 % of control | cell viability ([9]; MDA-MB-231, 24 h, 10.0 µM): 106.3 ± 9.9 % of control | cell viability ([9]; MDA-MB-231, 24 h, 100.0 µM): 82.5 ± 1.3 % of control | IC50 ([9]; MDA-MB-231, 24 h): > 100 µM | cell viability ([9]; MDA-MB-231, 48 h, 1.0 µM): 103.2 ± 0.9 % of control | cell viability ([9]; MDA-MB-231, 48 h, 10.0 µM): 90.5 ± 2.7 % of control | cell viability ([9]; MDA-MB-231, 48 h, 100.0 µM): 52.9 ± 3.4 % of control | IC50 ([9]; MDA-MB-231, 48 h): ≥ 100 µM | cytotoxic activity [10]: moderate cytotoxic activity | cytotoxic activity [11]: moderate cytotoxic activity | cytotoxic activity (CNS glioma SF-268 cells): moderate cytotoxic activity
